# In patent US20230110351A1, “METHODS FOR TREATING PARKINSON'S DISEASE WITH SEPIAPTERIN” (PTC Therapeutics MP, Inc., priority 2020, published 2023):
# Like-named read-outs stand apart in the source and are kept apart here.
# Experiments:
# [1] = Pharmacokinetic parameters for BH4 after single dose of sepiapterin or BH4 in fasted subjects; assay type: in vivo
# Method: Six subjects received sepiapterin in each group and three subjects received BH4 in each group where this treatment was administered.
# Values shown are means of plasma concentrations of BH4 following administration at the doses shown.
# [2] = Food effect on administration of sepiapterin: plasma sepiapterin and BH4, fasted vs fed; assay type: in vivo; conditions: sepiapterin 10 mg/kg oral
# Method: Method: Subjects received two oral doses of sepiapterin (10 mg/kg) separated by one week in a fasted and fed state. Subjects were fed a standard high-fat (approximately 50 percent of total caloric content of the meal) and high-calorie (approximately […] calories) meal starting 30 minutes prior to receiving their second oral dose of sepiapterin on Day 8.
# Sampling for PK analysis occurred predose on Days 1 and 8 (within 30 minutes before dosing) and 0.5 hr, 1 hr, 2 hr, 4 hr, 8 hr, 12 hr, and 24 hr after the doses on Days 1 and 8. The blood concentrations of sepiapterin and BH4 were analyzed by MNG Labs.
# [3] = assay type: in vivo
# Method: Method: Twelve subjects were given a single dose (10 mg/kg) of sepiapterin under fasting conditions and then 7 days later under fed conditions. Standard definitions of adverse events (AE) were used. All-cause AE were those that occurred at any time; treatment-emergent adverse events (TEAE) were those that occurred at or after the time of administration of study treatment. TEAEs related to study drug were based on the opinion of the investigator. Serious AE were defined as life threatening or caused death, hospitalization or prolongation of existing hospitalization, or were a persistent or significant disability/incapacity or a substantial disruption of the ability to conduct normal life functions, or a congenital anomaly/birth defect.
# [4] = CSF levels of sepiapterin, BH4, BH2, HVA and 5-HIAA after administration of sepiapterin; assay type: in vivo
# Method: The cerebrospinal fluid (CSF) of selected subjects was collected via lumbar puncture on Day1 (before dose) and on Day 7 (i.e., following daily dosing for 7 days) approximately 30 minutes from time of the maximum observed plasma BH4 concentration (Tmax) as determined from the blood analysis. The cerebral spinal fluid (CSF) was analyzed. Descriptive statistics are provided to characterize any changes in neurotransmitter metabolism between the Day 1, and Day 7 sample results. Method: Analyses were conducted in CSF samples of subjects administered 60 mg/kg sepiapterin or placebo. The following analytes were measured: sepiapterin, BH4, BH2, homovanillic acid (HVA), and 5-hydroxyindoleacetic acid (HIAA). Descriptive (n, mean, SD, median, minimum, maximum) statistics for these analytes at Day 1 and Day 7+/−30 minutes from Tmax and change from baseline at Day 7 were determined for each analyte.
# [5] = Pharmacokinetic analysis of multiple doses of sepiapterin (once daily, 7 days, fed subjects); assay type: in vivo
# From the text: Methods: Three cohorts of eight fed subjects each were randomized to receive once-daily sepiapterin or placebo for 7 days in a 6:2 ratio. A sentinel dose strategy was also used for administration of the highest sepiapterin dose.
# [6] = 60 mg/kg sepiapterin arm, Day 1 (before dose)
# [7] = 60 mg/kg sepiapterin, Day 7, +/-30 minutes from BH4 Tmax
# [8] = 60 mg/kg sepiapterin, Day 7, same subject
# [9] = Day 1 pre-dose, one subject with low baseline
# [10] = human, plasma, po, 5 mg/kg, sepiapterin 5 mg/kg once daily, Day 1
# [11] = human, plasma, po, 5 mg/kg, sepiapterin 5 mg/kg once daily, Day 7
# [12] = human, plasma, po, 20 mg/kg, sepiapterin 20 mg/kg once daily, Day 1
# [13] = human, plasma, po, 20 mg/kg, sepiapterin 20 mg/kg once daily, Day 7
# [14] = human, plasma, po, 60 mg/kg, sepiapterin 60 mg/kg once daily, Day 1
# [15] = human, plasma, po, 60 mg/kg, sepiapterin 60 mg/kg once daily, Day 7
compound,measurement,setting,value
C[C@H](O)C(=O)C1=Nc2c(nc(N)[nH]c2=O)NC1 [sepiapterin],"AUC0-24 and AUC0-inf of BH4, subjects administered sepiapterin compared to subjects administered BH4",[1],much higher
same,concentration at 0 h,"[2]; human, plasma, fasted, 0 h (predose), read-out: Sepiapterin Concentration in Plasma, Maximum",0 nM
same,concentration at 0.5 h,"[2]; human, plasma, fasted, 0.5 h, read-out: Sepiapterin Concentration in Plasma, Minimum",0 nM
same,concentration at 4 h,"[2]; human, plasma, fasted, 4 h, read-out: Sepiapterin Concentration in Plasma, Minimum",0 nM
same,concentration at 8 h,"[2]; human, plasma, fasted, 8 h, read-out: Sepiapterin Concentration in Plasma, Maximum",0 nM
same,concentration at 12 h,"[2]; human, plasma, fasted, 12 h, read-out: Sepiapterin Concentration in Plasma, Maximum",0 nM
same,concentration at 24 h,"[2]; human, plasma, fasted, 24 h, read-out: Sepiapterin Concentration in Plasma, Maximum",0 nM
same,concentration at 1 h,"[2]; human, plasma, fed, 1 h, read-out: Sepiapterin Concentration in Plasma, Minimum",0 nM
same,concentration at 2 h,"[2]; human, plasma, fed, 2 h, read-out: Sepiapterin Concentration in Plasma, Minimum",0 nM
same,"Cmax of BH4 in the plasma, fed compared to fasted",[2],much higher
same,"Cmax of sepiapterin in the plasma, fed compared to fasted",[2],much lower
same,"Geometric mean ratio (fasted/fed, 90% CI) for plasma sepiapterin AUClast",[2],1.29 (0.84 to 2.00)
same,"Geometric mean ratio (fasted/fed, 90% CI) for plasma sepiapterin Cmax",[2],1.57 (1.21 to 2.0)
same,"Sepiapterin Concentration in Plasma, Mean","[2]; fasted, 0 h (predose)",0 nM
same,"Sepiapterin Concentration in Plasma, Median","[2]; fasted, 0 h (predose)",0 nM
same,concentration at 2 h,"[2]; fasted, 0 h (predose), read-out: Sepiapterin Concentration in Plasma, Minimum",0 nM
same,"Sepiapterin Concentration in Plasma, Mean","[2]; fasted, 8 h",0 nM
same,"Sepiapterin Concentration in Plasma, Median","[2]; fasted, 8 h",0 nM
same,concentration at 2 h,"[2]; fasted, 8 h, read-out: Sepiapterin Concentration in Plasma, Minimum",0 nM
same,"Sepiapterin Concentration in Plasma, Mean","[2]; fasted, 12 h",0 nM
same,"Sepiapterin Concentration in Plasma, Median","[2]; fasted, 12 h",0 nM
same,concentration at 2 h,"[2]; fasted, 12 h, read-out: Sepiapterin Concentration in Plasma, Minimum",0 nM
same,"Sepiapterin Concentration in Plasma, Mean","[2]; fasted, 24 h",0 nM
same,"Sepiapterin Concentration in Plasma, Median","[2]; fasted, 24 h",0 nM
same,concentration at 2 h,"[2]; fasted, 24 h, read-out: Sepiapterin Concentration in Plasma, Minimum",0 nM
same,"Sepiapterin Concentration in Plasma, Mean","[2]; fed, 0 h (predose)",0 nM
same,"Sepiapterin Concentration in Plasma, Median","[2]; fed, 0 h (predose)",0 nM
same,concentration at 24 h,"[2]; fed, 0 h (predose), read-out: Sepiapterin Concentration in Plasma, Maximum",0 nM
same,concentration at 2 h,"[2]; fed, 0 h (predose), read-out: Sepiapterin Concentration in Plasma, Minimum",0 nM
same,"Sepiapterin Concentration in Plasma, Median","[2]; fed, 0.5 h",0 nM
same,concentration at 2 h,"[2]; fed, 0.5 h, read-out: Sepiapterin Concentration in Plasma, Minimum",0 nM
same,concentration at 2 h,"[2]; fed, 4 h, read-out: Sepiapterin Concentration in Plasma, Minimum",0 nM
same,"Sepiapterin Concentration in Plasma, Median","[2]; fed, 8 h",0 nM
same,concentration at 2 h,"[2]; fed, 8 h, read-out: Sepiapterin Concentration in Plasma, Minimum",0 nM
same,"Sepiapterin Concentration in Plasma, Mean","[2]; fed, 12 h",0 nM
same,"Sepiapterin Concentration in Plasma, Median","[2]; fed, 12 h",0 nM
same,concentration at 24 h,"[2]; fed, 12 h, read-out: Sepiapterin Concentration in Plasma, Maximum",0 nM
same,concentration at 2 h,"[2]; fed, 12 h, read-out: Sepiapterin Concentration in Plasma, Minimum",0 nM
same,"Sepiapterin Concentration in Plasma, Mean","[2]; fed, 24 h",0 nM
same,"Sepiapterin Concentration in Plasma, Median","[2]; fed, 24 h",0 nM
same,concentration at 24 h,"[2]; fed, 24 h, read-out: Sepiapterin Concentration in Plasma, Maximum",0 nM
same,concentration at 2 h,"[2]; fed, 24 h, read-out: Sepiapterin Concentration in Plasma, Minimum",0 nM
same,TEAE,"[3]; human, in vivo, 10 mg/kg",4
same,TEAE related to study drug,"[3]; human, in vivo, 10 mg/kg",1
same,≥1 AE,"[3]; human, in vivo, 10 mg/kg",5
same,"Incidence of adverse events, fed compared to fasted subjects",[3]; single dose 10 mg/kg,decreased incidence of adverse events
same,5-HIAA Mean Concentration in CSF,[4]; [6],14.6 ng/mL
same,HVA Mean Concentration in CSF,[4]; [6],32.3 ng/mL
same,Sepiapterin Mean Concentration in CSF,[4]; [6],0 ng/mL
same,Sepiapterin in the CSF,"[4]; 60 mg/kg sepiapterin, Day 1 or Day 7 +/-30 minutes from BH4 Tmax",not detected
same,Change in CSF concentration of 5-HIAA relative to Day 1,"[4]; 60 mg/kg sepiapterin, Day 7",-1.142 ng/mL
same,5-HIAA Mean Concentration in CSF,[4]; [7],13.4 ng/mL
same,HVA Mean Concentration in CSF,[4]; [7],33.7 ng/mL
same,Sepiapterin Mean Concentration in CSF,[4]; [7],0 ng/mL
same,Change in CSF concentration of HVA relative to Day 1,"[4]; 60 mg/kg sepiapterin, Day 7, increase",1.378 ng/mL
same,"CSF 5-HIAA concentration, one subject",[4]; [8],9.53 ng/mL
same,"CSF HVA concentration, one subject",[4]; [8],29.93 ng/mL
same,"CSF 5-HIAA concentration, one subject",[4]; [9],3.69 ng/mL
same,"CSF HVA concentration, one subject",[4]; [9],10.02 ng/mL
same,Cmax,[5]; [10],0.6 ng/mL
same,Tmax,[5]; [10],3 h
same,AUC(0-inf),"[5]; human, plasma, po, 5 mg/kg, sepiapterin 5 mg/kg once daily, Day 1, read-out: AUC0-inf of sepiapterin",1 ng·h/mL
same,Cmax,[5]; [11],0.6 ng/mL
same,Tmax,[5]; [11],3 h
same,AUC(0-inf),"[5]; human, plasma, po, 5 mg/kg, sepiapterin 5 mg/kg once daily, Day 7, read-out: AUC0-inf of sepiapterin",0.7 ng·h/mL
same,Cmax,[5]; [12],1.2 ng/mL
same,Tmax,[5]; [12],2.6 h
same,AUC(0-inf),"[5]; human, plasma, po, 20 mg/kg, sepiapterin 20 mg/kg once daily, Day 1, read-out: AUC0-inf of sepiapterin",3.9 ng·h/mL
same,Cmax,[5]; [13],1.3 ng/mL
same,Tmax,[5]; [13],2.7 h
same,AUC(0-inf),"[5]; human, plasma, po, 20 mg/kg, sepiapterin 20 mg/kg once daily, Day 7, read-out: AUC0-inf of sepiapterin",4.3 ng·h/mL
same,Cmax,[5]; [14],2.7 ng/mL
same,Tmax,[5]; [14],3.3 h
same,AUC(0-inf),"[5]; human, plasma, po, 60 mg/kg, sepiapterin 60 mg/kg once daily, Day 1, read-out: AUC0-inf of sepiapterin",21.2 ng·h/mL
same,Cmax,[5]; [15],2.8 ng/mL
same,Tmax,[5]; [15],3 h
same,AUC(0-inf),"[5]; human, plasma, po, 60 mg/kg, sepiapterin 60 mg/kg once daily, Day 7, read-out: AUC0-inf of sepiapterin",16 ng·h/mL
same,AUC(0-t),"[5]; human, plasma, po, sepiapterin 60 mg/kg once daily, Day 1, read-out: AUC0-24 of sepiapterin",23 ng·h/mL
same,Drug accumulation (plasma sepiapterin and BH4 after 1 and 7 days of treatment),[5]; once daily for 7 days,no drug accumulation
